Source: patent publication US20240050428A1 (Cullgen (Shanghai), Inc., priority 2020, published 2024)
Where two headings read alike, the source gives them in different places.

What was measured:
[1] = system: MV4;11 cells; assay: Cell viability assay (CellTiter-Glo) in MV4;11 cells, alone or with gilteritinib; type: cell-based; details: Homo sapiens, read-out: MV4
[2] = system: MOLM-13 cells; assay: Cell viability assay (CellTiter-Glo) in MOLM-13 cells, alone or with gilteritinib; type: cell-based; details: Homo sapiens
[3] = MV4-11, 72 h, MV4;11 cells, compound alone (without gilteritinib), three days, CellTiter-Glo, 11 IC50
[4] = MV4-11, 72 h, MV4;11 cells, compound with gilteritinib 10 nM, three days, CellTiter-Glo, 11 IC50 gilteritinib
[5] = MOLM-13, 72 h, MOLM-13 cells, compound alone (without gilteritinib), three days, CellTiter-Glo, read-out: MOLM-13 IC50
[6] = MOLM-13, 72 h, MOLM-13 cells, compound with gilteritinib 20 nM, three days, CellTiter-Glo, read-out: MOLM-13 IC50 gilteritinib
[7] = 72 h, MV4;11 cells, compound alone (without gilteritinib), three days, CellTiter-Glo, 11 IC50
[8] = 72 h, MV4;11 cells, compound with gilteritinib 10 nM, three days, CellTiter-Glo, 11 IC50 gilteritinib
[9] = 72 h, MOLM-13 cells, compound alone (without gilteritinib), three days, CellTiter-Glo, read-out: MOLM-13 IC50
[10] = 72 h, MOLM-13 cells, compound with gilteritinib 20 nM, three days, CellTiter-Glo, read-out: MOLM-13 IC50 gilteritinib

| IC50 [1, 3] [nM] | IC50 [1, 4] [nM] | IC50 [2, 5] [nM] | IC50 [2, 6] [nM] | Compound | IC50 [1, 7] [nM] | IC50 [1, 8] [nM] | IC50 [2, 9] [nM] | IC50 [2, 10] [nM] | also measured |
| --- | --- | --- | --- | --- | --- | --- | --- | --- | --- |
| 10 to 100 | < 10 | > 1000 | < 10 | O=C1CCC(N2Cc3cc(OCCCCCC(=O)N4CCC(n5cc(-c6cnc7ccccc7n6)cn5)CC4)ccc3C2=O)C(=O)N1 (centres unmarked) [GS-493, 3-(1-oxo-5-((6-oxo-6-(4-(4-(quinoxalin-2-yl)-1H-pyrazol-1-yl)piperidin-1-yl)hexyl)oxy)isoindolin-2-yl)piperidine-2,6-dione] | – | – | – | – | – |
| 10 to 100 | < 10 | 10 to 100 | < 10 | COc1cccnc1-c1cnn([C@H]2C[C@H](CCCNc3ccc4c(c3)C(=O)N(C3CCC(=O)NC3=O)C4=O)C2)c1 (stereo partly drawn) [GS-494, 2-(2,6-Dioxopiperidin-3-yl)-5-((3-(trans-3-(4-(3-methoxypyridin-2-yl)-1H-pyrazol-1-yl)cyclobutyl)propyl)amino)isoindoline-1,3-dione] | – | – | – | – | – |
| < 10 | < 10 | < 10 | < 10 | O=C1CCC(N2Cc3cc(NC(=O)Cc4cccc(N5CCC(n6cc(-c7cnc8ccccc8n7)cn6)CC5)c4)ccc3C2=O)C(=O)N1 (centres unmarked) [GS-495, N-(2-(2,6-dioxopiperidin-3-yl)-1-oxoisoindolin-5-yl)-2-(3-(4-(4-(quinoxalin-2-yl)-1H-pyrazol-1-yl)piperidin-1-yl)phenyl)acetamide] | – | – | – | – | – |
| – | – | – | – | O=C1CCC(N2C(=O)c3ccc(NCCCCCCn4cc(-c5ccccc5)cn4)cc3C2=O)C(=O)N1 (centres unmarked) [GS-496, 2-(2,6-dioxopiperidin-3-yl)-5-((6-(4-phenyl-1H-pyrazol-1-yl)hexyl)amino)isoindoline-1,3-dione] | 100 to 1000 | 10 to 100 | 100 to 1000 | 10 to 100 | – |
| 10 to 100 | < 10 | 100 to 1000 | < 10 | Cc1cccc(-c2cnn(CCCCCCNc3ccc4c(c3)C(=O)N(C3CCC(=O)NC3=O)C4=O)c2)c1 (centres unmarked) [GS-497, 2-(2,6-dioxopiperidin-3-yl)-5-((6-(4-(m-tolyl)-1H-pyrazol-1-yl)hexyl)amino)isoindoline-1,3-dione] | – | – | – | – | – |
| 100 to 1000 | 10 to 100 | 100 to 1000 | 10 to 100 | Cc1cccc(-c2cnn(CCCCCCNc3ccc4c(c3)C(=O)N(C3CCC(=O)NC3=O)C4=O)c2)n1 (centres unmarked) [GS-498, 2-(2,6-dioxopiperidin-3-yl)-5-((6-(4-(6-methylpyridin-2-yl)-1H-pyrazol-1-yl)hexyl)amino)isoindoline-1,3-dione] | – | – | – | – | – |
| > 1000 | 100 to 1000 | > 1000 | 100 to 1000 | Cc1cncc(-c2cnn(CCCCCCNc3ccc4c(c3)C(=O)N(C3CCC(=O)NC3=O)C4=O)c2)c1 (centres unmarked) [GS-499, 2-(2,6-dioxopiperidin-3-yl)-5-((6-(4-(5-methylpyridin-3-yl)-1H-pyrazol-1-yl)hexyl)amino)isoindoline-1,3-dione] | – | – | – | – | – |
| < 10 | < 10 | < 10 | < 10 | O=C1CCC(N2Cc3cc(NC(=O)C(F)(F)c4cccc(N5CCC(n6cc(-c7cnc8ccccc8n7)cn6)CC5)c4)ccc3C2=O)C(=O)N1 (centres unmarked) [GS-500, N-(2-(2,6-dioxopiperidin-3-yl)-1-oxoisoindolin-5-yl)-2,2-difluoro-2-(3-(4-(4-(quinoxalin-2-yl)-1H-pyrazol-1-yl)piperidin-1-yl)phenyl)acetamide] | – | – | – | – | – |
| – | – | – | – | O=C1CCC(N2Cc3cc(NC(=O)Cc4cccc(N5CCC(c6ccccc6)CC5)c4)ccc3C2=O)C(=O)N1 (centres unmarked) [GS-501, N-(2-(2,6-Dioxopiperidin-3-yl)-1-oxoisoindolin-5-yl)-2-(3-(4-phenylpiperidin-1-yl)phenyl)acetamide] | < 10 | < 10 | < 10 | < 10 | – |
| 100 to 1000 | 10 to 100 | 100 to 1000 | 10 to 100 | Cc1nc2ccccc2nc1-c1cnn(CCCCCCNc2ccc3c(c2)C(=O)N(C2CCC(=O)NC2=O)C3=O)c1 (centres unmarked) [GS-502, 2-(2,6-Dioxopiperidin-3-yl)-5-((6-(4-(3-methylquinoxalin-2-yl)-1H-pyrazol-1-yl)hexyl)amino)isoindoline-1,3-dionee] | – | – | – | – | – |
| 10 to 100 | < 10 | 100 to 1000 | 10 to 100 | O=C1CCC(N2C(=O)c3ccc(NCCCCCCn4cc(-c5cnc6ccc(Br)cc6n5)cn4)cc3C2=O)C(=O)N1 (centres unmarked) [GS-503, 5-((6-(4-(7-Bromoquinoxalin-2-yl)-1H-pyrazol-1-yl)hexyl)amino)-2-(2,6-dioxopiperidin-3-yl)isoindoline-1,3-dione] | – | – | – | – | – |
| – | – | – | – | O=C1CCC(N2C(=O)c3ccc(NCCCc4cccc(N5CCC(c6ccccc6)CC5)c4)cc3C2=O)C(=O)N1 (centres unmarked) [GS-504, 2-(2,6-Dioxopiperidin-3-yl)-5-((3-(3-(4-phenylpiperidin-1-yl)phenyl)propyl)amino)isoindoline-1,3-dione] | 100 to 1000 | 10 to 100 | 100 to 1000 | 10 to 100 | – |
| – | – | – | – | O=C1CCC(N2C(=O)c3ccc(NCCCc4cc(F)cc(N5CCC(c6ccccc6)CC5)c4)cc3C2=O)C(=O)N1 (centres unmarked) [GS-505, 2-(2,6-Dioxopiperidin-3-yl)-5-((3-(3-fluoro-5-(4-phenylpiperidin-1-yl)phenyl)propyl)amino)isoindoline-1,3-dione] | 10 to 100 | 10 to 100 | 10 to 100 | < 10 | – |
| – | – | – | – | O=C1CCC(N2C(=O)c3ccc(NCCCc4ccc(F)c(N5CCC(c6ccccc6)CC5)c4)cc3C2=O)C(=O)N1 (centres unmarked) [GS-506, 2-(2,6-Dioxopiperidin-3-yl)-5-((3-(4-fluoro-3-(4-phenylpiperidin-1-yl)phenyl)propyl)amino)isoindoline-1,3-dione] | > 1000 | > 1000 | > 1000 | 100 to 1000 | – |
| – | – | – | – | O=C1CCC(N2C(=O)c3ccc(NCCCc4cccc(N5CCC(c6ccccc6)CC5)c4F)cc3C2=O)C(=O)N1 (centres unmarked) [GS-507, 2-(2,6-Dioxopiperidin-3-yl)-5-((3-(2-fluoro-3-(4-phenylpiperidin-1-yl)phenyl)propyl)amino)isoindoline-1,3-dione] | > 1000 | 100 to 1000 | > 1000 | 10 to 100 | – |
| – | – | – | – | O=C1CCC(N2Cc3c(CNC(=O)c4cccc(N5CCC(n6cc(-c7cnc8ccccc8n7)cn6)CC5)c4)cccc3C2=O)C(=O)N1 (centres unmarked) [GS-509, N-((2-(2,6-Dioxopiperidin-3-yl)-1-oxoisoindolin-4-yl)methyl)-3-(4-(4-(quinoxalin-2-yl)-1H-pyrazol-1-yl)piperidin-1-yl)benzamide] | – | – | – | – | IC50 ([1]; MV4-11, 72 h, 11 IC50): < 10 nM; IC50 ([1]; MV4-11, 72 h, 11 IC50 gilteritinib): < 10 nM; IC50 ([2]; MOLM-13, 72 h, read-out: MOLM-13 IC50): < 10 nM; IC50 ([2]; MOLM-13, 72 h, read-out: MOLM-13 IC50 gilteritinib): < 10 nM |
| 100 to 1000 | < 10 | > 1000 | < 10 | Cc1nn(CCCCCCNc2ccc3c(c2)C(=O)N(C2CCC(=O)NC2=O)C3=O)c(C)c1-c1cnc2ccccc2n1 (centres unmarked) [GS-510, 5-((6-(3,5-Dimethyl-4-(quinoxalin-2-yl)-1H-pyrazol-1-yl)hexyl)amino)-2-(2,6-dioxopiperidin-3-yl)isoindoline-1,3-dione] | – | – | – | – | – |
| 100 to 1000 | 10 to 100 | 100 to 1000 | < 10 | Cc1cccc2ncc(-c3cnn(CCCCCCNc4ccc5c(c4)C(=O)N(C4CCC(=O)NC4=O)C5=O)c3)nc12 (centres unmarked) [GS-511, 2-(2,6-Dioxopiperidin-3-yl)-5-((6-(4-(8-methylquinoxalin-2-yl)-1H-pyrazol-1-yl)hexyl)amino)isoindoline-1,3-dione] | – | – | – | – | – |
| 10 to 100 | 10 to 100 | 10 to 100 | < 10 | Cc1cccc2nc(-c3cnn(CCCCCCNc4ccc5c(c4)C(=O)N(C4CCC(=O)NC4=O)C5=O)c3)cnc12 (centres unmarked) [GS-512, 2-(2,6-dioxopiperidin-3-yl)-5-((6-(4-(5-methylquinoxalin-2-yl)-1H-pyrazol-1-yl)hexyl)amino)isoindoline-1,3-dione] | – | – | – | – | – |
| < 10 | < 10 | < 10 | < 10 | O=C1CCC(N2Cc3cc(NC(=O)c4cccc(N5CCC(n6cc(-c7cnc8ccccc8n7)cn6)CC5)c4)ccc3C2=O)C(=O)N1 (centres unmarked) [GS-513, N-(2-(2,6-Dioxopiperidin-3-yl)-1-oxoisoindolin-5-yl)-3-(4-(4-(quinoxalin-2-yl)-1H-pyrazol-1-yl)piperidin-1-yl)benzamide] | – | – | – | – | – |
| – | – | – | – | O=C1CCC(N2Cc3cc(CNC(=O)Nc4cccc(N5CCC(c6ccccc6)CC5)c4)ccc3C2=O)C(=O)N1 (centres unmarked) [GS-514, 1-((2-(2,6-Dioxopiperidin-3-yl)-1-oxoisoindolin-5-yl)methyl)-3-(3-(4-phenylpiperidin-1-yl)phenyl)urea] | < 10 | < 10 | < 10 | < 10 | – |
| > 1000 | 10 to 100 | > 1000 | 100 to 1000 | O=C1CCC(N2Cc3cc(NCCCCC(=O)N4CCC(n5cc(-c6cnc7ccccc7n6)cn5)CC4)ccc3C2=O)C(=O)N1 (centres unmarked) [GS-515, 3-(1-Oxo-5-((5-oxo-5-(4-(4-(quinoxalin-2-yl)-1H-pyrazol-1-yl)piperidin-1-yl)pentyl)amino)isoindolin-2-yl)piperidine-2,6-dione] | – | – | – | – | – |
| 100 to 1000 | 10 to 100 | > 1000 | 10 to 100 | Cc1ccccc1-c1cnn(CCCCCCNc2ccc3c(c2)C(=O)N(C2CCC(=O)NC2=O)C3=O)c1 (centres unmarked) [GS-516, 2-(2,6-Dioxopiperidin-3-yl)-5-((6-(4-(o-tolyl)-1H-pyrazol-1-yl)hexyl)amino)isoindoline-1,3-dione] | – | – | – | – | – |
